Test results taken from ChEMBL document CHEMBL4270599, “Synthesis of a 3'-C-ethynyl-β-d-ribofuranose purine nucleoside library: Discovery of C7-deazapurine analogs as potent antiproliferative nucleosides” (Eur J Med Chem, 2018).

Experiments:
Assay type in all cases: functional
[1] = tested on: K562; test: Cytotoxicity against human K562 cells after 48 hrs by SRB assay; conditions: K562, 48 h; for CC50: read-out: LC50 (the source's name); for GI50: read-out: pGI50 (converted)
[2] = tested on: NCI-H226; test: Cytotoxicity against human NCI-H226 cells after 48 hrs by SRB assay; conditions: NCI-H226, 48 h; for GI50: read-out: pGI50 (converted); for CC50: read-out: pLC50 (the source's name) (converted)
[3] = tested on: NCI-H322M; test: Cytotoxicity against human NCI-H322M cells after 48 hrs by SRB assay; conditions: for GI50: read-out: pGI50 (converted)
[4] = tested on: HCC 2998; test: Cytotoxicity against human HCC2998 cells after 48 hrs by SRB assay; conditions: HCC 2998, 48 h; for GI50: read-out: pGI50 (converted); for CC50: read-out: pLC50 (the source's name) (converted)
[5] = tested on: HCT-15; test: Cytotoxicity against human HCT15 cells after 48 hrs by SRB assay; conditions: HCT-15, 48 h; for GI50: read-out: pGI50 (converted); for CC50: read-out: pLC50 (the source's name) (converted)
[6] = tested on: OVCAR-4; test: Cytotoxicity against human OVCAR4 cells after 48 hrs by SRB assay; conditions: OVCAR-4, 48 h; for GI50: read-out: pGI50 (converted); for CC50: read-out: pLC50 (the source's name) (converted)
[7] = tested on: UO-31; test: Cytotoxicity against human UO31 cells after 48 hrs by SRB assay; conditions: UO-31, 48 h; for GI50: read-out: pGI50 (converted)
[8] = tested on: CCRF-CEM; test: Growth inhibition of human CCRF-CEM cells assessed as cell growth at 10^-8 M incubated for 48 hrs by sulforhodamine B assay relative to control; conditions: read-out: Activity
[9] = tested on: MOLT-4; test: Growth inhibition of human MOLT4 cells assessed as cell growth at 10^-8 M incubated for 48 hrs by sulforhodamine B assay relative to control; conditions: MOLT-4, 48 h, read-out: Activity
[10] = tested on: SN12C; test: Growth inhibition of human SN12C cells assessed as cell growth at 10^-8 M incubated for 48 hrs by sulforhodamine B assay relative to control; conditions: read-out: Activity
[11] = tested on: MCF7; test: Growth inhibition of human MCF7 cells assessed as cell growth at 10^-8 M incubated for 48 hrs by sulforhodamine B assay relative to control; conditions: MCF7, 48 h, read-out: Activity
[12] = tested on: BT-549; test: Growth inhibition of human BT549 cells assessed as cell growth at 10^-8 M incubated for 48 hrs by sulforhodamine B assay relative to control; conditions: BT-549, 48 h, read-out: Activity
[13] = tested on: HCC 2998; test: Growth inhibition of human HCC2998 cells assessed as cell growth at 10^-7 M incubated for 48 hrs by sulforhodamine B assay relative to control; conditions: HCC 2998, 48 h, read-out: Activity
[14] = tested on: SF-295; test: Growth inhibition of human SF295 cells assessed as cell growth at 10^-7 M incubated for 48 hrs by sulforhodamine B assay relative to control; conditions: SF-295, 48 h, read-out: Activity
[15] = tested on: SK-MEL-2; test: Growth inhibition of human SK-MEL-2 cells assessed as cell growth at 10^-7 M incubated for 48 hrs by sulforhodamine B assay relative to control; conditions: SK-MEL-2, 48 h, read-out: Activity
[16] = tested on: SK-MEL-28; test: Growth inhibition of human SK-MEL-28 cells assessed as cell growth at 10^-7 M incubated for 48 hrs by sulforhodamine B assay relative to control; conditions: SK-MEL-28, 48 h, read-out: Activity
[17] = tested on: UO-31; test: Growth inhibition of human UO31 cells assessed as cell growth at 10^-7 M incubated for 48 hrs by sulforhodamine B assay relative to control; conditions: UO-31, 48 h, read-out: Activity
[18] = tested on: T47D; test: Growth inhibition of human T47D cells assessed as cell growth at 10^-7 M incubated for 48 hrs by sulforhodamine B assay relative to control; conditions: read-out: Activity
[19] = tested on: HL-60(TB); test: Growth inhibition of human HL-60(TB) cells assessed as cell growth at 10^-6 M incubated for 48 hrs by sulforhodamine B assay relative to control; conditions: HL-60, 48 h, read-out: Activity
[20] = tested on: SR; test: Growth inhibition of human SR cells assessed as cell growth at 10^-6 M incubated for 48 hrs by sulforhodamine B assay relative to control; conditions: read-out: Activity
[21] = tested on: NCI-H23; test: Growth inhibition of human NCI-H23 cells assessed as cell growth at 10^-6 M incubated for 48 hrs by sulforhodamine B assay relative to control; conditions: NCI-H23, 48 h, read-out: Activity
[22] = tested on: U-251; test: Growth inhibition of human U251 cells assessed as cell growth at 10^-6 M incubated for 48 hrs by sulforhodamine B assay relative to control; conditions: U-251, 48 h, read-out: Activity
[23] = tested on: SK-MEL-2; test: Growth inhibition of human SK-MEL-2 cells assessed as cell growth at 10^-6 M incubated for 48 hrs by sulforhodamine B assay relative to control; conditions: SK-MEL-2, 48 h, read-out: Activity
[24] = tested on: OVCAR-8; test: Growth inhibition of human OVCAR8 cells assessed as cell growth at 10^-6 M incubated for 48 hrs by sulforhodamine B assay relative to control; conditions: OVCAR-8, 48 h, read-out: Activity
[25] = tested on: 786-0; test: Growth inhibition of human 786-0 cells assessed as cell growth at 10^-6 M incubated for 48 hrs by sulforhodamine B assay relative to control; conditions: 786-0, 48 h, read-out: Activity
[26] = tested on: ACHN; test: Growth inhibition of human ACHN cells assessed as cell growth at 10^-6 M incubated for 48 hrs by sulforhodamine B assay relative to control; conditions: read-out: Activity
[27] = tested on: K562; test: Growth inhibition of human K562 cells assessed as cell growth at 10^-5 M incubated for 48 hrs by sulforhodamine B assay relative to control; conditions: K562, 48 h, read-out: Activity
[28] = tested on: NCI-H322M; test: Growth inhibition of human NCI-H322M cells assessed as cell growth at 10^-5 M incubated for 48 hrs by sulforhodamine B assay relative to control; conditions: read-out: Activity
[29] = tested on: M14; test: Growth inhibition of human M14 cells assessed as cell growth at 10^-5 M incubated for 48 hrs by sulforhodamine B assay relative to control; conditions: M14, 48 h, read-out: Activity
[30] = tested on: MDA-MB-435; test: Growth inhibition of human MDA-MB-435 cells assessed as cell growth at 10^-5 M incubated for 48 hrs by sulforhodamine B assay relative to control; conditions: MDA-MB-435, 48 h, read-out: Activity
[31] = tested on: K562; test: Growth inhibition of human K562 cells assessed as cell growth at 10^-4 M incubated for 48 hrs by sulforhodamine B assay relative to control; conditions: K562, 48 h, read-out: Activity
[32] = tested on: HT-29; test: Growth inhibition of human HT-29 cells assessed as cell growth at 10^-4 M incubated for 48 hrs by sulforhodamine B assay relative to control; conditions: HT-29, 48 h, read-out: Activity
[33] = tested on: MCF7; test: Growth inhibition of human MCF7 cells assessed as cell growth at 10^-4 M incubated for 48 hrs by sulforhodamine B assay relative to control; conditions: MCF7, 48 h, read-out: Activity
[34] = read-out: pLC50 (the source's name) (converted)

With `C#C[C@@]1(O)[C@@H](CO)O[C@@H](n2cc(F)c3c(N)ncnc32)[C@@H]1O` the CC50 [1] was > 100 µM, the TGI ([1]; read-out: TGI) was > 100 µM and the GI50 [1] was 0.288 µM. The TGI ([1]; read-out: pTGI) was > 100 µM, the TGI ([2]; read-out: TGI) was 2.63 µM and the GI50 [2] was 0.525 µM. For the same compound, the CC50 [2] was > 100 µM, the TGI ([2]; read-out: pTGI (converted)) was 2.63 µM and the CC50 ([3]; read-out: LC50 (the source's name)) was > 100 µM. It also gave a TGI ([3]; read-out: TGI) of 4.48 µM, a GI50 [3] of 0.501 µM and a TGI ([3]; read-out: pTGI (converted)) of 4.47 µM. The TGI ([4]; read-out: TGI) was 2.82 µM, the GI50 [4] was 0.603 µM and the CC50 [4] was 15.8 µM. It also gave a TGI ([4]; read-out: pTGI (converted)) of 2.82 µM, a TGI ([5]; read-out: TGI) of 3.19 µM and a GI50 [5] of 0.295 µM. For the same compound, the CC50 [5] was > 100 µM, the TGI ([5]; read-out: pTGI (converted)) was 3.16 µM and the TGI ([6]; read-out: TGI) was 8.67 µM. For the same compound, the GI50 [6] was 1 µM, the CC50 [6] was > 100 µM and the TGI ([6]; read-out: pTGI (converted)) was 8.71 µM. The TGI ([7]; read-out: TGI) was 2.48 µM, the GI50 [7] was 0.468 µM and the CC50 [7, 34] was > 100 µM. For the same compound, the TGI ([7]; read-out: pTGI (converted)) was 2.51 µM, the growth at 0.01 µM [8] was 95% and the growth at 0.01 µM [9] was 99%. For the same compound, the growth at 0.01 µM [10] was 94%, the growth at 0.01 µM [11] was 89% and the growth at 0.01 µM [12] was 98%. The growth at 0.1 µM [13] was 97%, the growth at 0.1 µM [14] was 94% and the growth at 0.1 µM [15] was 101%. It also gave a growth at 0.1 µM [16] of 95%, a growth at 0.1 µM [17] of 104% and a growth at 0.1 µM [18] of 80%. For the same compound, the growth at 1 µM [19] was 20%, the growth at 1 µM [20] was 9% and the growth at 1 µM [21] was 22%. It also gave a growth at 1 µM [22] of 38%, a growth at 1 µM [23] of 22% and a growth at 1 µM [24] of 15%. The growth at 1 µM [25] was 43%, the growth at 1 µM [26] was 9% and the growth at 10 µM [27] was 8%. The growth at 10 µM [28] was -17%, the growth at 10 µM [29] was -48% and the growth at 10 µM [30] was -26%. The growth at 100 µM [31] was 6%, the growth at 100 µM [32] was 2% and the growth at 100 µM [33] was -21%.

For `C#C[C@@]1(O)[C@@H](CO)O[C@@H](n2ccc3c(N)ncnc32)[C@@H]1O`, the CC50 [1] was > 100 µM, the TGI ([1]; read-out: TGI) was > 100 µM and the GI50 [1] was 0.813 µM. For the same compound, the TGI ([1]; read-out: pTGI) was > 100 µM, the TGI ([2]; read-out: TGI) was 4.85 µM and the GI50 [2] was 2.04 µM. The CC50 [2] was 26.3 µM, the TGI ([2]; read-out: pTGI (converted)) was 4.9 µM and the TGI ([3]; read-out: TGI) was 6.08 µM. It also gave a GI50 [3] of 1.29 µM, a CC50 [3, 34] of 50.1 µM and a TGI ([3]; read-out: pTGI (converted)) of 6.03 µM. For the same compound, the TGI ([4]; read-out: TGI) was 3.12 µM, the GI50 [4] was 1.45 µM and the CC50 [4] was 6.76 µM. For the same compound, the TGI ([4]; read-out: pTGI (converted)) was 3.09 µM, the TGI ([5]; read-out: TGI) was 4.62 µM and the GI50 [5] was 0.891 µM. For the same compound, the CC50 [5] was > 100 µM, the TGI ([5]; read-out: pTGI (converted)) was 4.57 µM and the TGI ([6]; read-out: TGI) was 7.79 µM. For the same compound, the GI50 [6] was 1.95 µM, the CC50 [6] was 28.2 µM and the TGI ([6]; read-out: pTGI (converted)) was 7.76 µM. It also gave a TGI ([7]; read-out: TGI) of 3.58 µM, a GI50 [7] of 1.41 µM and a TGI ([7]; read-out: pTGI (converted)) of 3.55 µM. It also gave a growth at 0.01 µM [8] of 102%, a growth at 0.01 µM [9] of 96% and a growth at 0.01 µM [10] of 94%. The growth at 0.01 µM [11] was 83%, the growth at 0.01 µM [12] was 89% and the growth at 0.1 µM [13] was 93%. The growth at 0.1 µM [14] was 98%, the growth at 0.1 µM [15] was 90% and the growth at 0.1 µM [16] was 97%. It also gave a growth at 0.1 µM [17] of 105%, a growth at 0.1 µM [18] of 86% and a growth at 1 µM [19] of 68%. It also gave a growth at 1 µM [20] of 46%, a growth at 1 µM [21] of 57% and a growth at 1 µM [22] of 80%. For the same compound, the growth at 1 µM [23] was 60%, the growth at 1 µM [24] was 51% and the growth at 1 µM [25] was 68%. For the same compound, the growth at 1 µM [26] was 33%, the growth at 10 µM [27] was 6% and the growth at 10 µM [28] was -16%. For the same compound, the growth at 10 µM [29] was -80%, the growth at 10 µM [30] was -62% and the growth at 100 µM [31] was 2%. For the same compound, the growth at 100 µM [32] was -17% and the growth at 100 µM [33] was -53%.
